# Earlier results, collected in patent US6388175B1, “Control of leaf scald disease” (priority 1995, dated 2002).
# Entries after “also recorded” stand apart in the source; their conditions may differ.
# Details: 100° C. for 30 min
substance,measurement,value
albicidin,Activity after heating,unaffected; also recorded: little activity is lost
